In ChEMBL document CHEMBL5620375, “Tetrahydrobenzo[h]quinoline derivatives as a novel chemotype for dual antileishmanial-antimalarial activity graced with antitubercular activity: Design, synthesis and biological evaluation” (Eur J Med Chem, 2023):
In brackets after ≈: the same amount, converted by molar mass.

test system: Leishmania major; assay: Antileishmanial activity against Leishmania major promastigotes assessed as inhibition of parasite growth incubated for 48 hrs by alamar blue reagent based ELISA; assay type: functional, organism-based; conditions: not given

Structure (SMILES)	IC50 [nM]
N#Cc1c(-c2ccccc2Br)c2c([nH]c1=O)-c1ccccc1CC2	2110
CC(=O)N1CCC(C(=O)NCc2ccc3c(c2)-c2[nH]c(=O)c(C#N)c(-c4cc(Cl)ccc4Cl)c2CC3)CC1	409
COc1cc(-c2c3c([nH]c(=O)c2C#N)-c2ccccc2CC3)cc(OC)c1OC	2520
N#Cc1c(-c2cccs2)c2c([nH]c1=O)-c1ccccc1CC2	2640
COc1ccc(-c2c3c([nH]c(=O)c2C#N)-c2ccccc2CC3)cc1OC	2240

test system: Leishmania major; assay: Antileishmanial activity against Leishmania major promastigotes assessed as parasite survival incubated for 48 hrs by alamar blue reagent based ELISA relative to control; assay type: functional; conditions: not given

Structure (SMILES)	Survival [%]
CC(=O)N1CCC(C(=O)NCc2ccc3c(c2)-c2[nH]c(=O)c(C#N)c(-c4cc(Cl)ccc4Cl)c2CC3)CC1	24

test system: not listed separately; assay: Acute toxicity in mouse assessed as signs of toxicity at 25 to 150 mg/kg,po administrated for 3 days; assay type: organism-based; conditions: in vivo, 72 h, dose 25-150 mg/kg, time 3 day

Structure (SMILES)	Activity
CC(=O)N1CCC(C(=O)NCc2ccc3c(c2)-c2[nH]c(=O)c(C#N)c(-c4cc(Cl)ccc4Cl)c2CC3)CC1	Non-Toxic
N#Cc1c(-c2cccs2)c2c([nH]c1=O)-c1ccccc1CC2	Non-Toxic

test system: Plasmodium berghei; assay: Antimalarial activity against Plasmodium berghei ANKA infected in mouse assessed as parasitemia at 48.4 microM/Kg,po measured after 96 hrs by giemsa staining analysis relative to control; assay type: functional; conditions: at 48.4 µmol/kg

Structure (SMILES)	Activity [%]
N#Cc1c(-c2ccccc2Br)c2c([nH]c1=O)-c1ccccc1CC2	36
CC(=O)N1CCC(C(=O)NCc2ccc3c(c2)-c2[nH]c(=O)c(C#N)c(-c4cc(Cl)ccc4Cl)c2CC3)CC1	3
COc1cc(-c2c3c([nH]c(=O)c2C#N)-c2ccccc2CC3)cc(OC)c1OC	8
N#Cc1c(-c2cccs2)c2c([nH]c1=O)-c1ccccc1CC2	2
COc1ccc(-c2c3c([nH]c(=O)c2C#N)-c2ccccc2CC3)cc1OC	38

test system: Leishmania major; assay: Antileishmanial activity against Leishmania major promastigotes assessed as parasite survival incubated for 48 hrs in presence of 100 uM of folic acid by alamar blue reagent based ELISA relative to control; assay type: functional; conditions: not given

Structure (SMILES)	Survival [%]
CC(=O)N1CCC(C(=O)NCc2ccc3c(c2)-c2[nH]c(=O)c(C#N)c(-c4cc(Cl)ccc4Cl)c2CC3)CC1	88

test system: Plasmodium berghei; assay: Antimalarial activity against Plasmodium berghei ANKA infected in mouse assessed as mean survival time at 48.4 microM/Kg,po measured after 96 hrs; assay type: functional; conditions: not given

Structure (SMILES)	Survival [days]
N#Cc1c(-c2ccccc2Br)c2c([nH]c1=O)-c1ccccc1CC2	7.33
COc1cc(-c2c3c([nH]c(=O)c2C#N)-c2ccccc2CC3)cc(OC)c1OC	12.4
COc1ccc(-c2c3c([nH]c(=O)c2C#N)-c2ccccc2CC3)cc1OC	8.66

test system: not listed separately; assay: Cytotoxicity against African green monkey Vero cells incubated for 72 hrs by crystal violet staining based assay; assay type: toxicity, cell-based; conditions: chlorocebus sabaeus

Structure (SMILES)	CC50 at 72 h [µM]
CC(=O)N1CCC(C(=O)NCc2ccc3c(c2)-c2[nH]c(=O)c(C#N)c(-c4cc(Cl)ccc4Cl)c2CC3)CC1	455

test system: Mycobacterium tuberculosis; assay: Antitubercular activity against Mycobacterium tuberculosis H37Ra assessed as inhibition of bacterial growth by microplate alamar blue assay; assay type: functional; conditions: not given

Structure (SMILES)	MIC [µM]
N#Cc1c(-c2ccccc2Br)c2c([nH]c1=O)-c1ccccc1CC2	10.3 (≈ 3.9 µg/mL)
CC(=O)N1CCC(C(=O)NCc2ccc3c(c2)-c2[nH]c(=O)c(C#N)c(-c4cc(Cl)ccc4Cl)c2CC3)CC1	28.4 (≈ 15.6 µg/mL)
COc1cc(-c2c3c([nH]c(=O)c2C#N)-c2ccccc2CC3)cc(OC)c1OC	20.1 (≈ 7.81 µg/mL)
N#Cc1c(-c2cccs2)c2c([nH]c1=O)-c1ccccc1CC2	12.8 (≈ 3.9 µg/mL)
COc1ccc(-c2c3c([nH]c(=O)c2C#N)-c2ccccc2CC3)cc1OC	10.9 (≈ 3.9 µg/mL)

test system: Plasmodium berghei; assay: Antimalarial activity against Plasmodium berghei ANKA infected in mouse assessed as reduction in parasite growth at 48.4 microM/Kg,po measured after 96 hrs by giemsa staining analysis; assay type: functional; set-up: scale not given: the % may be the effect or the level left; conditions: at 48.4 µmol/kg

Structure (SMILES)	Activity [%]
N#Cc1c(-c2ccccc2Br)c2c([nH]c1=O)-c1ccccc1CC2	60
CC(=O)N1CCC(C(=O)NCc2ccc3c(c2)-c2[nH]c(=O)c(C#N)c(-c4cc(Cl)ccc4Cl)c2CC3)CC1	96.67
COc1cc(-c2c3c([nH]c(=O)c2C#N)-c2ccccc2CC3)cc(OC)c1OC	91.11
N#Cc1c(-c2cccs2)c2c([nH]c1=O)-c1ccccc1CC2	97.78
COc1ccc(-c2c3c([nH]c(=O)c2C#N)-c2ccccc2CC3)cc1OC	57.78

test system: not listed separately; assay: Selectivity index, ratio of CC50 for cytotoxicity against African green monkey Vero cells to IC50 for antimalarial activity against chloroquine-resistant Plasmodium falciparum RKL9; assay type: toxicity, cell-based; conditions: read-out: Ratio CC50/IC50

Structure (SMILES)	selectivity ratio
CC(=O)N1CCC(C(=O)NCc2ccc3c(c2)-c2[nH]c(=O)c(C#N)c(-c4cc(Cl)ccc4Cl)c2CC3)CC1	11800

test system: not listed separately; assay: Selectivity index, ratio of CC50 for cytotoxicity against African green monkey Vero cells to MIC for antitubercular activity against Mycobacterium tuberculosis H37Ra; assay type: toxicity, cell-based; conditions: read-out: Selectivity Index

Structure (SMILES)	selectivity ratio
CC(=O)N1CCC(C(=O)NCc2ccc3c(c2)-c2[nH]c(=O)c(C#N)c(-c4cc(Cl)ccc4Cl)c2CC3)CC1	16

test system: not listed separately; assay: Selectivity index, ratio of CC50 for cytotoxicity against African green monkey Vero cells to IC50 for antileishmanial activity against Leishmania major; assay type: toxicity, cell-based; conditions: read-out: Ratio CC50/IC50

Structure (SMILES)	selectivity ratio
CC(=O)N1CCC(C(=O)NCc2ccc3c(c2)-c2[nH]c(=O)c(C#N)c(-c4cc(Cl)ccc4Cl)c2CC3)CC1	1110

test system: Plasmodium falciparum; assay: Antimalarial activity against chloroquine-resistant Plasmodium falciparum RKL9 assessed as inhibition of parasite growth incubated for 24 hrs by giemsa staining analysis; assay type: functional, organism-based; conditions: RKL9, 24 h

Structure (SMILES)	IC50 [nM]
CC(=O)N1CCC(C(=O)NCc2ccc3c(c2)-c2[nH]c(=O)c(C#N)c(-c4cc(Cl)ccc4Cl)c2CC3)CC1	39
COc1cc(-c2c3c([nH]c(=O)c2C#N)-c2ccccc2CC3)cc(OC)c1OC	96
N#Cc1c(-c2cccs2)c2c([nH]c1=O)-c1ccccc1CC2	21

test system: Leishmania major; assay: Antileishmanial activity against Leishmania major promastigotes assessed as parasite survival incubated for 48 hrs in presence of 20 uM of folinic acid by alamar blue reagent based ELISA relative to control; assay type: functional; conditions: not given

Structure (SMILES)	Survival [%]
CC(=O)N1CCC(C(=O)NCc2ccc3c(c2)-c2[nH]c(=O)c(C#N)c(-c4cc(Cl)ccc4Cl)c2CC3)CC1	82

test system: Leishmania major; assay: Antileishmanial activity against Leishmania major promastigotes assessed as parasite survival incubated for 48 hrs in presence of 100 uM of folinic acid by alamar blue reagent based ELISA relative to control; assay type: functional; conditions: not given

Structure (SMILES)	Survival [%]
CC(=O)N1CCC(C(=O)NCc2ccc3c(c2)-c2[nH]c(=O)c(C#N)c(-c4cc(Cl)ccc4Cl)c2CC3)CC1	94

test system: Leishmania major; assay: Antileishmanial activity against Leishmania major promastigotes assessed as parasite survival incubated for 48 hrs in presence of 20 uM of folic acid by alamar blue reagent based ELISA relative to control; assay type: functional; conditions: not given

Structure (SMILES)	Survival [%]
CC(=O)N1CCC(C(=O)NCc2ccc3c(c2)-c2[nH]c(=O)c(C#N)c(-c4cc(Cl)ccc4Cl)c2CC3)CC1	78

test system: not listed separately; assay: Acute toxicity in mouse assessed as change in body weight at 25 to 150 mg/kg,po administrated for 3 days; assay type: organism-based; conditions: in vivo, 72 h, dose 25-150 mg/kg, time 3 day

Structure (SMILES)	Activity
CC(=O)N1CCC(C(=O)NCc2ccc3c(c2)-c2[nH]c(=O)c(C#N)c(-c4cc(Cl)ccc4Cl)c2CC3)CC1	Non-Toxic
N#Cc1c(-c2cccs2)c2c([nH]c1=O)-c1ccccc1CC2	Non-Toxic

test system: Leishmania major; assay: Antileishmanial activity against Leishmania major amastigotes assessed as inhibition of parasite growth incubated for 72 hrs by resazurin reagent based ELISA; assay type: functional, organism-based; conditions: not given

Structure (SMILES)	IC50 [µM]
N#Cc1c(-c2ccccc2Br)c2c([nH]c1=O)-c1ccccc1CC2	3.83
CC(=O)N1CCC(C(=O)NCc2ccc3c(c2)-c2[nH]c(=O)c(C#N)c(-c4cc(Cl)ccc4Cl)c2CC3)CC1	0.502
COc1cc(-c2c3c([nH]c(=O)c2C#N)-c2ccccc2CC3)cc(OC)c1OC	3.68
N#Cc1c(-c2cccs2)c2c([nH]c1=O)-c1ccccc1CC2	4.86
COc1ccc(-c2c3c([nH]c(=O)c2C#N)-c2ccccc2CC3)cc1OC	4.68
